The values that follow come from patent US20210380606A1, “5-AZAINDAZOLE DERIVATIVES AS ADENOSINE RECEPTOR ANTAGONISTS” (Merck Patent GmbH, priority 2018, published 2021).

The target in one assay is T1, human A2B receptors (Homo sapiens, UniProt P29275).
T1 construct: expressed in transfected cells; host or cells: HEK293
T1 sequence (P29275 1-332): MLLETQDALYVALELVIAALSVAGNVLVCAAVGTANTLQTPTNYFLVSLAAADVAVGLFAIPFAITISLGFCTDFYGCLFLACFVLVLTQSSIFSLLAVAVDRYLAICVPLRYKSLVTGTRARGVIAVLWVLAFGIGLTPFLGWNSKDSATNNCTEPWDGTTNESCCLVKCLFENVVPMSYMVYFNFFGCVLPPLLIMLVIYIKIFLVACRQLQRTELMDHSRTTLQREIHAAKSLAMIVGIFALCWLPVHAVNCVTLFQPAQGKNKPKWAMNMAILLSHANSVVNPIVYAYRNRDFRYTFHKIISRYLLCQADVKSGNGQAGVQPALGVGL
Put plainly: Functional human A2B receptor activity, recombinant HEK293 cells, cAMP (HTRF). To be noted: read-out: A2B (Category). The format is cell-based. In a few lines:
(§1)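 Read-out is cellular cAMP measured by HTRF, added once a 15 min incubation had ended. cAMP reflects adenosine receptor signalling as the second messenger.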
(In general: In TR-FRET formats the signal depends on donor and acceptor labels being close together.)

A further assay deals with T2, human A2A receptors (Homo sapiens, UniProt P29274).
T2 construct: expressed in transfected cells; host or cells: HEK293
T2 sequence (P29274 whole entry): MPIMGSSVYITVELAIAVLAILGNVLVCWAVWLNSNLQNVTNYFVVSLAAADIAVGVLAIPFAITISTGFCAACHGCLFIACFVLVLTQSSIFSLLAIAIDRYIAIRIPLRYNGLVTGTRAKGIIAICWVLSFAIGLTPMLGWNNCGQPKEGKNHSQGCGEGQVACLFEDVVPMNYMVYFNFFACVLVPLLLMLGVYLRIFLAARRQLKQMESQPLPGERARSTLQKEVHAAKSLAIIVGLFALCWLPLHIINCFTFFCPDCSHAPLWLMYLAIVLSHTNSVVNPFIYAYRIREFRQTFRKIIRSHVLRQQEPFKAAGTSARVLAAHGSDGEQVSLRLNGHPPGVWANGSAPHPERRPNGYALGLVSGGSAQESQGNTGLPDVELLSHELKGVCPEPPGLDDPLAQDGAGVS
Put plainly: Functional human A2A receptor activity, recombinant HEK293 cells, cAMP (HTRF). To be noted: read-out: A2A (Category). The format is cell-based. In outline: as §1

[1] abbreviates: recombinant HEK293 cells expressing human A2B receptor, agonist NECA, cAMP HTRF, 15 min incubation.
The mark [2] stands for this setting: recombinant HEK293 cells expressing human A2A receptor, agonist NECA, cAMP HTRF, 15 min incubation.

Like-named read-outs stand apart in the source and are kept apart here.

Consider `O=C(c1cc2c(cn1)c(-c1cnc3c(F)cc(F)cn13)nn2CC(F)(F)F)N1CCCC(CO)C1` (stereo not shown) [Compound 161, [3-(6,8-Difluoro-imidazo[1,2-a]pyridin-3-yl)-1-(2,2,2-trifluoro-ethyl)-1H-pyrazolo[4,3-c]pyridin-6-yl]-(3-hydroxymethyl-piperidin-1-yl)-methanone], for which the IC50 on human A2B receptors was less than 1000 nM; on human A2A receptors it was less than 100 nM.
Turning to `CC1(O)C2CCC1CN(C(=O)c1cc3c(cn1)c(-c1cnc4c(F)cc(F)cn14)nn3CC(F)(F)F)C2` (stereo not drawn) [Compound 162, [3-(6,8-Difluoro-imidazo[1,2-a]pyridin-3-yl)-1-(2,2,2-trifluoro-ethyl)-1H-pyrazolo[4,3-c]pyridin-6-yl]-(8-endo-hydroxy-8-exo-methyl-3-aza-bicyclo[3.2.1]oct-3-yl)-methanone], the IC50 on human A2B receptors is less than 1000 nM; at human A2A receptors it was less than 100 nM.
As to `O=C(c1cc2c(cn1)c(-c1cnc3c(F)cc(F)cn13)nn2CC(F)(F)F)N1CCC(CO)CC1` [Compound 165, [3-(6,8-Difluoro-imidazo[1,2-a]pyridin-3-yl)-1-(2,2,2-trifluoro-ethyl)-1H-pyrazolo[4,3-c]pyridin-6-yl]-(4-hydroxymethyl-piperidin-1-yl)-methanone], the IC50 at human A2B receptors was less than 1000 nM; on human A2A receptors it was less than 100 nM.
As for `O=C(c1cc2c(cn1)c(-c1cnc3c(F)cc(F)cn13)nn2CC(F)(F)F)N1CCC2(CC1)COC2` [Compound 166, [3-(6,8-Difluoro-imidazo[1,2-a]pyridin-3-yl)-1-(2,2,2-trifluoro-ethyl)-1H-pyrazolo[4,3-c]pyridin-6-yl]-(2-oxa-7-aza-spiro[3.5]non-7-yl)-methanone], the IC50 was less than 1000 nM on human A2B receptors and less than 100 nM on human A2A receptors.
With `O=C(c1cc2c(cn1)c(-c1cnc3c(F)cc(F)cn13)nn2CC(F)(F)F)N1[C@@H]2CC[C@H]1C[C@@H](O)C2` [Compound 168, [3-(6,8-Difluoro-imidazo[1,2-a]pyridin-3-yl)-1-(2,2,2-trifluoro-ethyl)-1H-pyrazolo[4,3-c]pyridin-6-yl]-(3-endo-hydroxy-8-aza-bicyclo[3.2.1]oct-8-yl)-methanone], the IC50 at human A2B receptors and at human A2A receptors was less than 100 nM each time.
With `O=C(c1cc2c(cn1)c(-c1cnc3c(F)cc(F)cn13)nn2CC(F)(F)F)N1CC2CC3CC(C2)CC1C3` [Compound 169, (4-Aza-tricyclo[4.3.1.1*3,8*]undec-4-yl)-[3-(6,8-difluoro-imidazo[1,2-a]pyridin-3-yl)-1-(2,2,2-trifluoro-ethyl)-1H-pyrazolo[4,3-c]pyridin-6-yl]-methanone], the IC50 on human A2B receptors and on human A2A receptors was less than 100 nM throughout.
Regarding `O=C(c1cc2c(cn1)c(-c1cnc3c(F)cc(F)cn13)nn2CC(F)(F)F)N1CC2CCC(C1)C2O` (stereo not drawn) [Compound 170, [3-(6,8-Difluoro-imidazo[1,2-a]pyridin-3-yl)-1-(2,2,2-trifluoro-ethyl)-1H-pyrazolo[4,3-c]pyridin-6-yl]-(8-exo-hydroxy-3-aza-bicyclo[3.2.1]oct-3-yl)-methanone], the IC50 at human A2B receptors is less than 1000 nM; on human A2A receptors, less than 100 nM.
Consider `O=C(c1cc2c(cn1)c(-c1cnc3c(F)cc(F)cn13)nn2CC(F)(F)F)N1C2CCC1CC(O)C2` (stereo not drawn) [Compound 171, [3-(6,8-Difluoro-imidazo[1,2-a]pyridin-3-yl)-1-(2,2,2-trifluoro-ethyl)-1H-pyrazolo[4,3-c]pyridin-6-yl]-(3-exo-hydroxy-8-aza-bicyclo[3.2.1]oct-8-yl)-methanone], for which the IC50 on human A2B receptors (setting [1]) was less than 1000 nM; at human A2A receptors (setting [2]), less than 100 nM.
As to `O=C(c1cc2c(cn1)c(-c1cnc3c(F)cc(F)cn13)nn2CC(F)(F)F)N1C2CCCC1CC2` [Compound 172, (8-Aza-bicyclo[3.2.1]oct-8-yl)-[3-(6,8-difluoro-imidazo[1,2-a]pyridin-3-yl)-1-(2,2,2-trifluoro-ethyl)-1H-pyrazolo[4,3-c]pyridin-6-yl]-methanone], the IC50 at human A2B receptors and at human A2A receptors was less than 100 nM each time.
For the compound `O=C(c1cc2c(cn1)c(-c1cnc3c(F)cc(F)cn13)nn2CC(F)(F)F)N1CCC(C(F)F)CC1` [Compound 173, [3-(6,8-Difluoro-imidazo[1,2-a]pyridin-3-yl)-1-(2,2,2-trifluoro-ethyl)-1H-pyrazolo[4,3-c]pyridin-6-yl]-(4-difluoromethyl-piperidin-1-yl)-methanone], the IC50 on human A2B receptors was less than 1000 nM; at human A2A receptors, less than 100 nM.
For the compound `CC1(CO)CCN(C(=O)c2cc3c(cn2)c(-c2cnc4c(F)cc(F)cn24)nn3CC(F)(F)F)CC1` [Compound 176, [3-(6,8-Difluoro-imidazo[1,2-a]pyridin-3-yl)-1-(2,2,2-trifluoro-ethyl)-1H-pyrazolo[4,3-c]pyridin-6-yl]-(4-hydroxymethyl-4-methyl-piperidin-1-yl)-methanone], the IC50 at human A2B receptors is less than 1000 nM; at human A2A receptors it was less than 100 nM.
For `O=C(c1cc2c(cn1)c(-c1cnc3c(F)cc(F)cn13)nn2CC(F)(F)F)N1CCCC(O)CC1` (stereo not shown) [Compound 177, [3-(6,8-Difluoro-imidazo[1,2-a]pyridin-3-yl)-1-(2,2,2-trifluoro-ethyl)-1H-pyrazolo[4,3-c]pyridin-6-yl]-(4-hydroxy-azepan-1-yl)-methanone], the IC50 on human A2B receptors and at human A2A receptors was less than 100 nM throughout.
Regarding `O=C(c1cc2c(cn1)c(-c1cnc3c(F)cc(F)cn13)nn2CC(F)(F)F)N1CCCS(=O)(=O)CC1` [Compound 180, [3-(6,8-Difluoro-imidazo[1,2-a]pyridin-3-yl)-1-(2,2,2-trifluoro-ethyl)-1H-pyrazolo[4,3-c]pyridin-6-yl]-1,4-thiazepan-1,1-dioxide-4-yl-methanone], the IC50 at human A2B receptors was less than 1000 nM; at human A2A receptors it was less than 100 nM.
Turning to `CC1(C)CN(C(=O)c2cc3c(cn2)c(-c2cnc4c(F)cc(F)cn24)nn3CC(F)(F)F)CCCO1` [Compound 182, [3-(6,8-Difluoro-imidazo[1,2-a]pyridin-3-yl)-1-(2,2,2-trifluoro-ethyl)-1H-pyrazolo[4,3-c]pyridin-6-yl]-(2,2-dimethyl-1,4-oxazepan-4-yl)-methanone], the IC50 at human A2B receptors was less than 1000 nM; at human A2A receptors, less than 100 nM.
`C[C@@H]1COC[C@H](C)N1C(=O)c1cc2c(cn1)c(-c1cnc3c(F)cc(F)cn13)nn2CC(F)(F)F` [Compound 183, Cis-[3-(6,8-Difluoro-imidazo[1,2-a]pyridin-3-yl)-1-(2,2,2-trifluoro-ethyl)-1H-pyrazolo[4,3-c]pyridin-6-yl]-(3,5-dimethyl-morpholin-4-yl)-methanone]: the IC50 was less than 1000 nM at human A2B receptors and less than 100 nM on human A2A receptors.
Take `O=C(c1cc2c(cn1)c(-c1cnc3c(F)cc(F)cn13)nn2CC(F)(F)F)N1CCOCC(F)(F)C1` [Compound 185, [3-(6,8-Difluoro-imidazo[1,2-a]pyridin-3-yl)-1-(2,2,2-trifluoro-ethyl)-1H-pyrazolo[4,3-c]pyridin-6-yl]-(6,6-difluoro-1,4-oxazepan-4-yl)-methanone]: the IC50 was less than 1000 nM at human A2B receptors and less than 100 nM at human A2A receptors.
As for `O=C(c1cc2c(cn1)c(-c1cnc3c(F)cc(F)cn13)nn2CC(F)(F)F)N1CC2CCC(C1)C2O` (stereo not drawn) [Compound 187, [3-(6,8-Difluoro-imidazo[1,2-a]pyridin-3-yl)-1-(2,2,2-trifluoro-ethyl)-1H-pyrazolo[4,3-c]pyridin-6-yl]-(8-endo-hydroxy-3-aza-bicyclo[3.2.1]oct-3-yl)-methanone], the IC50 was less than 1000 nM on human A2B receptors (setting [1]) and less than 100 nM on human A2A receptors (setting [2]).
